According to publication PMC3501516, “Anti-Diabetic Efficacy and Impact on Amino Acid Metabolism of GRA1, a Novel Small-Molecule Glucagon Receptor Antagonist” (PLoS ONE, 2012):

How the values were obtained:
[1] = in vivo; conditions: hGCGR.ob/ob, mouse, 3 mg/kg
[2] = target: T1, PAC1R (pituitary adenylate cyclase-activating polypeptide receptor type 1) (Homo sapiens, UniProt P41586); assay: Inhibition of agonist-stimulated cAMP production in CHO cells expressing PAC1R; format: cell-based; conditions: PAC1-stimulated
T1 construct: expressed in transfected cells
T1 sequence (P41586 21-468): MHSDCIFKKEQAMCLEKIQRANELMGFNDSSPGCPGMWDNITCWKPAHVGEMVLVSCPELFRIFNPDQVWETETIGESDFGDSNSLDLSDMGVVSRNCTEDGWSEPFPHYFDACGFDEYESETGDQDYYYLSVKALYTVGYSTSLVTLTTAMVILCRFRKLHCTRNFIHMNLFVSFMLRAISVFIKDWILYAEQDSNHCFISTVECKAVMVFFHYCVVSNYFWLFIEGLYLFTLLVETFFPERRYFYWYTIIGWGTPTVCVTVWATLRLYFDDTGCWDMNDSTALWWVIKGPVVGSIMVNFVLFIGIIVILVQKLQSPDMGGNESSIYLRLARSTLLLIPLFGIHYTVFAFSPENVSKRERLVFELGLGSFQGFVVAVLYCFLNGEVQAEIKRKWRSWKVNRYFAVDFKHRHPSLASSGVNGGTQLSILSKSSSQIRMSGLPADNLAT
From the text: Transfected Chinese hamster ovary (CHO) cell lines were acquired and maintained as previously described, [20]. These included separate cell lines stably expressing human GCGR (hGCGR), mouse GCGR, rhesus GGCR, glucose-dependent insulinotropic peptide receptor (GIPR), GLP-1 receptor (GLP-1R), pituitary adenylate cyclase-activating polypeptide receptor type 1 (PAC1R), and vasoactive adenylate cyclase-activating polypeptide receptor type 2 (VPAC2R). Inhibition of glucagon binding to hGCGR was assayed in cell membranes prepared from the line of CHO cells that expressed the hGCGR. Functional antagonism was assayed by measuring the production of cAMP in intact CHO cells stimulated by agonists specific for their cognate receptors (i.e., glucagon for GCGR-expressing cell lines, GIP for the GIPR-expressing line, etc.). Primary human hepatocytes were obtained from In Vitro Technologies (Baltimore, MD) and glucagon-stimulated glycogenolysis was studied in these as previously described.

Compound: COc1ccc2cc(-c3cc(-c4cc(C(F)(F)F)ccc4F)nn3[C@@H](C)c3ccc(C(=O)NCCC(=O)O)cc3)ccc2c1 [GRA1, N-[4-((1S)-1-{3-(2-fluoro-5-trifluoromethylphenyl)-5-[6-methoxynaphth-2-yl]-1H-pyrazol-1-yl}ethyl)benzoyl]-β-alanine]
- concentration at 1 h [1]: 1120 ± 800 nM
- concentration at 3 h [1]: 920 ± 100 nM
- IC50 [2]: 7.85 µM
